Test results taken from patent US12642862B2, “Anti-CD79B antibody-drug conjugate, and preparation method therefor and pharmaceutical use thereof” (TUOJIE BIOTECH (SHANGHAI) CO., LTD., priority 2020, dated 2026).

Assays:
A549 = assay: Test Example 2 in vitro cytotoxic activity (CTG), A549; format: cell-based; conditions: A549, 5 days; for IC50: Homo sapiens, 120 h
Experimental: (§1) In this experiment, the ATP content was determined using CTG to reflect the survival condition of the tumor cells.
(§2) Each of A549, SKBR3 and MDA-MB-468 was digested with pancreatin, resuspended in a culture medium and counted, and the cell density was adjusted to 2.2×10^4 cells/mL. 135 μL of cell suspension was added to each well in columns 2 to 11 of a 96-well plate, and column 12 was set as blank control. The cells were cultured in an incubator at 37° C. with 5% CO2 for 24 h.
(§3) a) Stock solution preparation: the drug was dissolved in DMSO to obtain a stock solution at a concentration of 5 mM.
(§4) b) Plate 1: stock solution in column 1 was initially subjected to a 40-fold dilution, and 3-fold gradient dilutions were performed sequentially in columns 2 to 11. Column 12 was filled with DMSO.
(§5) c) Plate 2: 196 μL of the corresponding culture medium was added to columns 2 to 11, and 4 μL of culture medium was pipetted from columns 3 to 12 of the plate 1 to columns 2 to 11 of the plate 2. The culture medium was mixed well.
(§6) 15 μL of culture medium was pipetted from the plate 2 and added to the cells. The cells were continuously cultured in an incubator at 37° C. with 5% C02 for 5 days.
(§7) 2.4. CTG assay: the plate was taken out and allowed to equilibrate to room temperature. 75 μL of CTG was added to each well and reacted at room temperature for 10 min away from the light. The luminescence value was read using a microplate reader and IC50 was calculated. 2.5. Data Results

SKBR3 = assay: Test Example 2 in vitro cytotoxic activity (CTG), SKBR3; format: cell-based; conditions: SKBR3, 5 days; for IC50: Homo sapiens, SK-BR-3, 120 h
Experimental: as §1, §2, §3, §4, §5, §6, §7

MDA-MB-468 = assay: Test Example 2 in vitro cytotoxic activity (CTG), MDA-MB-468; format: cell-based; conditions: MDA-MB-468, 5 days; for IC50: Homo sapiens, 120 h
Experimental: as §1, §2, §3, §4, §5, §6, §7

[1] = system: DOHH-2 cells highly expressing human CD79B protein; assay: Endocytosis of anti-CD79B antibodies in DOHH-2 cells; format: cell-based
Experimental: In order to determine whether the CD79B antibodies of the present disclosure can be endocytosed into cells with human CD79B after binding to human CD79B, a cell endocytosis experiment was performed with DOHH-2 cells (DSMZ, ACC 47) highly expressing human CD79B protein to assess the endocytosis ability of the antibodies.
The cells were collected by low temperature centrifugation at 4° C. for 5 min at 1000 rpm during the experiment. The cells were resuspended in 10-15 mL of FACS buffer pre-cooled on ice. The FACS buffer was composed of phosphate buffered saline (PBS), pH 7.4, with 2% fetal bovine serum (FBS). Throughout the experiment, FACS buffer was pre-cooled on ice. The cells were counted and centrifuged, and added to a 96-well plate at 300,000 cells/well. After centrifugation, the supernatant was discarded, and 12.5 μg/mL Fc blocking solution (BD, Cat No.: 564220) was added at 100 μL/well. Blocking was performed at room temperature for 10 min. Then, 20 μg/mL test CD79B antibody was added to the corresponding wells, and the plate was incubated at 4° C. for 1 h away from the light. The plate was washed twice with a pre-cooled PBS buffer to remove unbound antibodies. A complete cell culture medium (RPMI 1640 medium with 10% fetal bovine serum) was added, and the plate was incubated at 37° C. with 5% CO2 for 0 h, 1 h, 2 h and 4 h. After centrifugation, the supernatant was discarded, 2% PFA buffer solution was added at 100 μL/well to resuspend the cells, and the plate was left to stand for 10 min. Then, the plate was washed 3 times with an FACS buffer, and 100 μL of secondary antibody solution (fluorescent labeled goat anti-human secondary antibody: diluted in a 1:250 ratio, 2 μg/mL, Biolegend, Cat #409304) was added. The plate was incubated at 4° C. for half an hour away from the light. A pre-cooled PBS buffer was added, and the supernatant was discarded after centrifugation at 4° C., which were repeated three times. The cells were resuspended in an FACS buffer at 200 μL/well and detected using a flow cytometer (BD FACS Calibur).

human CD79B [2] = biological target: T1, human CD79B (Homo sapiens, UniProt P40259); assay: ELISA of anti-human CD79B hybridoma positive clones; format: binding; set-up: the extracellular region (ECD) of human CD79B comprises 159 amino acids (Met1-Asp159); made in house; host or cells: 293F cells; conditions: hybridoma cell supernatant, read at 450 nm
T1 sequence (P40259 29-159 limits assumed): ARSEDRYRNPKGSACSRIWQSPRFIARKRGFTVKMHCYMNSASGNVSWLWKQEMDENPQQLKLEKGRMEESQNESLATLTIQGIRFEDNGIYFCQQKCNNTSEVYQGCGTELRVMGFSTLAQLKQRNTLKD
Experimental: (§8) 3) ELISA screening A 96-well plate was coated with 1 μg/mL antigen at 50 μL/well and incubated in a refrigerator at 4° C. overnight. The next day, the coated antigen plate was washed once (washing solution: 1×PBST). After washing, the plate was blocked with 1% BSA blocking solution prepared in 1×PBST at 37° C. for 1 h. After washing the plate 3 times with 1×PBST, 50 μL of the test cell supernatant was added, and the plate was incubated in an incubator at 37° C. for 1 h. After washing the plate 3 times with 1×PBST, 100 μL of goat anti-mouse secondary antibody diluted in a 1:5000 ratio was added, and the plate was incubated in an incubator at 37° C. for 0.5 h. After washing the plate, TMB color development solutions A and B were mixed in a 1:1 ratio for color development. 15 min later, the color development reaction was stopped with 1 N hydrochloric acid. […] value was read at 450 nm on a Spectra Max M5 microplate reader.
(§9) 5) Identification of hybridoma positive clones A plurality of specific antibodies against human CD79B antigen were obtained; and 17 strains of hybridomas having strongest binding force to ELISA and FACS in assays were taken for production and purification of antibodies. Specific antibodies against monkey CD79B antigen were also obtained; and 4 strains of hybridomas having strongest binding force to ELISA and FACS in assays were taken for production and purification of antibodies. Assay results of anti-monkey CD79B hybridoma positive clone cells by FACS are shown in Table 4. mIgG was used as negative control in the both assays.

[3] = biological target: T2, CD79B protein on the surface of DoHH2 cells (Homo sapiens, UniProt P40259); assay: FACS of purified anti-human CD79B mouse monoclonal antibodies on DoHH2 cells; format: binding
T2 construct: endogenous in cells; host or cells: DoHH2 (DOHH-2) cells
T2 sequence (P40259 29-229): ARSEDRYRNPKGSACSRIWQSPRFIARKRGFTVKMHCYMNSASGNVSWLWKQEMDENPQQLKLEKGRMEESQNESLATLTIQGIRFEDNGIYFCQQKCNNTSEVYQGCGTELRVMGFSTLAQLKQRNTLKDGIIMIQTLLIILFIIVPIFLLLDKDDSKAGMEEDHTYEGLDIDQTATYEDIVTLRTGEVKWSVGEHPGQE
T2 sequence (P11912 33-226 partner): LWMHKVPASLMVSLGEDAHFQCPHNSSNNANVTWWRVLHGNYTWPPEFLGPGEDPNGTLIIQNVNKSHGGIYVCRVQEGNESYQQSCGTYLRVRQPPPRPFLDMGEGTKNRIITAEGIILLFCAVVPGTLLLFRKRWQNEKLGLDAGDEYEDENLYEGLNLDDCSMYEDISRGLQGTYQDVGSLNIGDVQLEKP
Experimental: 3) Assay on anti-human CD79B mouse monoclonal antibodies by FACS The cell suspension of DoHH2 cells was centrifuged, resuspended in PBS containing 0.1% BSA, and counted. 100 μL of antibody diluted in a 1:10 ratio from 100 nM was added, and the cells were incubated at room temperature for 1 h and washed three times. Then Anti-Mouse IgG (Fc specific)-FITC secondary antibody was added, and the cells were incubated at room temperature for 30 min away from the light, washed three times, gently resuspended in PBS containing 0.1% BSA, and loaded on the machine for assay. […] The specific data are shown in FIGS. 9A and 9B, in which hIgG1 is a negative control antibody and SN8 is a positive control antibody. SN8 is an antibody (reference sequence source: US20170362318A) used in the antibody-drug conjugate polatuzumab vedotin developed by Roche pharmaceutical. Polatuzumab vedotin has been approved by the FDA for marketing.

human CD79B [4] = biological target: T1, human CD79B; assay: ELISA of purified anti-human CD79B mouse monoclonal antibodies; format: binding; set-up: the extracellular region (ECD) of human CD79B comprises 159 amino acids (Met1-Asp159); made in house; host or cells: 293F cells; conditions: purified antibodies diluted 1:10 from 100 nM; FIG. 8
Experimental: as §8, with “2) Assay on anti-human CD79B mouse monoclonal antibodies by” for “3)”, “ELISA” for “ELISA screening”, “antibody diluted in a 1:10 ratio from 100 nM” for “the test cell supernatant”

[5] = biological target: T2, CD79B protein on the surface of DoHH2 cells; assay: FACS of anti-human CD79B hybridoma positive clones; format: binding
Experimental: 4) FACS screening The suspension of DoHH2 cells was centrifuged, resuspended in PBS containing 0.1% BSA, and counted. The test serum was added, and the cells were incubated at room temperature for 60 min and washed. Then Anti-Mouse IgG (Fc specific)-FITC secondary antibody was added, and the cells were incubated at room temperature for 30 min away from the light, washed three times, gently resuspended in PBS containing 0.1% BSA, and loaded on the machine for assay.
as §9

## C=C1C[C@@H]2CC[C@@]34C[C@H]5O[C@H]6[C@@H](O3)[C@H]3O[C@H](CC[C@@H]3O[C@H]6[C@H]5O4)CC(=O)C[C@@H]3[C@@H](OC)[C@@H](C[C@@H](CNC)OC)O[C@H]3C[C@H]3O[C@@H](CC[C@@H]1O2)C[C@@H](C)C3=C [D-2]
A549
  Maximum inhibition (%): 62.09%
  IC50: 3.08 nM
SKBR3
  IC50: 1.09 nM
  Maximum inhibition (%): 96.85%
MDA-MB-468
  IC50: 1.88 nM
  Maximum inhibition (%): 89.43%

## C=C1C[C@@H]2CC[C@@]34C[C@H]5O[C@H]6[C@@H](O3)[C@H]3O[C@H](CC[C@@H]3O[C@H]6[C@H]5O4)CC(=O)C[C@@H]3[C@@H](OC)[C@@H](C[C@H](O)CO)O[C@H]3C[C@H]3O[C@@H](CC[C@@H]1O2)C[C@@H](C)C3=C [E1-30]
A549
  Maximum inhibition (%): 62.46%
  IC50: 0.781 nM
SKBR3
  IC50: 0.166 nM
  Maximum inhibition (%): 96.15%
MDA-MB-468
  IC50: 0.36 nM
  Maximum inhibition (%): 90.49%

## C=C1C[C@@H]2CC[C@@]34C[C@H]5O[C@H]6[C@@H](O3)[C@H]3O[C@H](CC[C@@H]3O[C@H]6[C@H]5O4)CC(=O)C[C@@H]3[C@@H](OC)[C@@H](C[C@H](O)CNC)O[C@H]3C[C@H]3O[C@@H](CC[C@@H]1O2)C[C@@H](C)C3=C [E-305]
A549
  Maximum inhibition (%): 61.27%
  IC50: 2.1 nM
SKBR3
  IC50: 0.571 nM
  Maximum inhibition (%): 96.42%
MDA-MB-468
  IC50: 1.17 nM
  Maximum inhibition (%): 88.53%

## SN8 [reference compound]
[1]; 20 μg/mL antibody, incubation at 4° C.
  endocytosis by DOHH-2 cells at 4° C.: cannot be endocytosed by DOHH-2 cells
[1]; 20 μg/mL antibody, incubation at 37° C., 1 h
  endocytosis by DOHH-2 cells at 37° C. after 1 h: most of the antibodies are already endocytosed by DOHH-2 cells
[1]; DOHH-2 cells
  endocytosis, overall judgement: good endocytosis
[1]; incubation at 37° C.
  time at which antibody endocytosis reaches a maximum: 4 h

B1: mAb015: anti-human CD79B mouse monoclonal antibody, clone 83B2G2; VH SEQ ID NO: 3, VL SEQ ID NO: 4 (antibody, listed as Mus musculus, V domains shown)
VH: QVQLQQSGAELARPGASVKLSCKASGSSFTSYGINWVKQRTGQGLEWIGEIFPRSGNTYYNEKFEGKATLTADKSSSTAYMELRSLTSEDSAVYFCAKGDLGDFDYWGQGTTLTVSS
VL: DFLMTQTPLSLPVRLGDQASISCRSSQSIVHSDGNTYFEWYLQKPGQSPKLLIYKVSNRFSGVPDRFSGSGSGTDFTLKISRVEAEDLGVYYCFQGSHVPWTFGGGTKLEIK
Human CD79B [2]
  Results (OD450): 3.41
[3]; antibodies diluted 1:10 from 100 nM, FIGS. 9A, 9B
  FACS binding force: strongest FACS binding force
[3]; positive control antibody SN8
  FACS binding force compared with SN8: superior binding force to SN8
Human CD79B [4]
  ELISA binding force: strongest ELISA binding force
[5]
  Mean fluorescence value: 10036
